Eleven molecules from PubChem BioAssay (NCI) can be followed below.

Some test systems named below: MDA-MB-231 breast; CAKI-1 renal; U251 CNS; SN12C renal; SK-MEL-2 melanoma; K-562 leukemia; COLO 205 colon; CCRF-CEM leukemia; OVCAR-8 ovarian; HT29 colon; SK-MEL-5 melanoma; A549 NSCLC; UACC-257 melanoma; MALME-3M melanoma; RPMI-8226 leukemia.
Common to all, as to test: NCI-60 cell line screen, 48 h

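In this assay, cells in 96-well plates receive the compound at five concentrations for 48 hours. Endpoints are linearly interpolated between the surrounding concentrations. Definition used: TGI = concentration required for complete inhibition of growth.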 Where only a bound is given, the exact number is not on record here.

For `Cc1ccc2nc(N/N=C/c3sccc3C)cc(C)c2c1`, the TGI in the assay with MDA-MB-231 breast is 62.2 µM; in the assay with CAKI-1 renal it was over 100 µM; in the assay on U251 CNS it was over 100 µM; in the assay on SN12C renal, over 100 µM; in the assay on SK-MEL-2 melanoma it was over 100 µM; in the assay with K-562 leukemia it was over 100 µM. For the same molecule, the TGI in the assay on COLO 205 colon, with CCRF-CEM leukemia, with OVCAR-8 ovarian, in the assay on HT29 colon, with SK-MEL-5 melanoma and in the assay on A549 NSCLC was over 100 µM each time. Also, the TGI in the assay on UACC-257 melanoma was over 100 µM.

Take `O=[N+]([O-])/C(C(Cl)=C(Cl)Cl)=C(/Cl)SCc1ccccc1`: the TGI with MDA-MB-231 breast came out at 4.32 µM; in the assay on CAKI-1 renal it was 12.5 µM; in the assay with U251 CNS, 25.1 µM; in the assay on SN12C renal, 12.9 µM; in the assay with SK-MEL-2 melanoma it was 47.4 µM; in the assay on K-562 leukemia, 3.36 µM. Further, the TGI with COLO 205 colon came out at 4.49 µM; in the assay with CCRF-CEM leukemia, 0.448 µM; in the assay on OVCAR-8 ovarian, 3.04 µM; in the assay on HT29 colon, 27.9 µM; with SK-MEL-5 melanoma, 20.8 µM; in the assay on MALME-3M melanoma it was 6.68 µM. Further, the TGI in the assay on A549 NSCLC came to 32.7 µM; in the assay with UACC-257 melanoma, 7.03 µM.

On to `CCN(CC)c1ccc2c(c1)Oc1ccc(N(CC)CC)cc1C21Oc2ccccc2-c2c1c1ccccc1n2CC` (stereo unspecified), for which the TGI in the assay on CAKI-1 renal, in the assay on U251 CNS, in the assay with SN12C renal, in the assay with K-562 leukemia, with COLO 205 colon and in the assay with CCRF-CEM leukemia was over 100 µM in each case. For the same molecule, the TGI in the assay with OVCAR-8 ovarian was over 100 µM; in the assay with HT29 colon, over 100 µM; with SK-MEL-5 melanoma, 25.3 µM; in the assay with MALME-3M melanoma, 9.27 µM; with RPMI-8226 leukemia, over 100 µM; in the assay on A549 NSCLC, over 100 µM. Moreover, in the assay with UACC-257 melanoma, the TGI was over 100 µM.

Consider `CC1(C)CNCC(C)(OCc2ccccc2)C(=O)NC(C)(C)CNCC(C)(OCc2ccccc2)C(=O)N1` (stereo unspecified), for which the TGI in the assay with MDA-MB-231 breast, with U251 CNS, in the assay with SN12C renal, with SK-MEL-2 melanoma, in the assay on K-562 leukemia and in the assay with CCRF-CEM leukemia was over 10 µM each time. The TGI in the assay with OVCAR-8 ovarian, in the assay with SK-MEL-5 melanoma, with MALME-3M melanoma, in the assay on A549 NSCLC and in the assay with UACC-257 melanoma was over 10 µM throughout.

For the molecule `NNC(=O)c1c(-c2cccnc2)cnc2ccccc12`, the TGI in the assay with CAKI-1 renal, in the assay with U251 CNS, in the assay on SN12C renal, in the assay with SK-MEL-2 melanoma, in the assay on K-562 leukemia and in the assay with COLO 205 colon was over 100 µM throughout. The TGI in the assay with CCRF-CEM leukemia, in the assay with OVCAR-8 ovarian, in the assay with HT29 colon, in the assay with SK-MEL-5 melanoma, in the assay on MALME-3M melanoma and in the assay on RPMI-8226 leukemia was over 100 µM in each case. Besides, the TGI in the assay on A549 NSCLC and with UACC-257 melanoma was over 100 µM throughout.

On to `O=C1Cc2c([nH]c3ccc(Br)cc23)-c2cc(O)c(O)cc2N1`, for which the TGI with MDA-MB-231 breast, with CAKI-1 renal, in the assay on U251 CNS, in the assay with SN12C renal, with SK-MEL-2 melanoma and in the assay on K-562 leukemia was over 100 µM in each case. The TGI in the assay on COLO 205 colon, in the assay with OVCAR-8 ovarian, in the assay on RPMI-8226 leukemia, in the assay with A549 NSCLC and in the assay on UACC-257 melanoma was over 100 µM each time.

`CCOC(=O)c1nc2cc(C(F)(F)F)ccc2nc1Nc1ccc(OC)cc1`: the TGI in the assay on MDA-MB-231 breast, with CAKI-1 renal, in the assay on SN12C renal, with SK-MEL-2 melanoma, in the assay on COLO 205 colon and with OVCAR-8 ovarian was over 100 µM throughout. Also, the TGI with HT29 colon, in the assay on SK-MEL-5 melanoma, in the assay with RPMI-8226 leukemia, with A549 NSCLC and in the assay with UACC-257 melanoma was over 100 µM each time.

For the molecule `C/C=C/C#CC#C/C=C/C=C/C(O)CCO` (stereo unspecified), the TGI in the assay with CAKI-1 renal, in the assay with U251 CNS, in the assay on SN12C renal, in the assay with SK-MEL-2 melanoma, in the assay on K-562 leukemia and in the assay with COLO 205 colon was over 23.1 µM throughout. Besides, the TGI with CCRF-CEM leukemia, in the assay on OVCAR-8 ovarian, with HT29 colon, with SK-MEL-5 melanoma, in the assay with MALME-3M melanoma and in the assay with RPMI-8226 leukemia was over 23.1 µM throughout. The TGI with A549 NSCLC and in the assay on UACC-257 melanoma was over 23.1 µM throughout.

In the case of `CN(C)C(=NCc1ccccc1)NC#N`, the TGI in the assay on CAKI-1 renal, with U251 CNS, with SN12C renal, in the assay on SK-MEL-2 melanoma, with COLO 205 colon and in the assay with OVCAR-8 ovarian was over 100 µM throughout. For the same molecule, the TGI in the assay on HT29 colon, in the assay on SK-MEL-5 melanoma, in the assay on A549 NSCLC and with UACC-257 melanoma was over 100 µM throughout.

For `Oc1[nH]c2ccccc2c1N=NC(=S)Nc1ccccc1Cl`, the TGI in the assay on MDA-MB-231 breast is 32 µM; with CAKI-1 renal, 8.78 µM; in the assay with U251 CNS it was 55 µM; in the assay with SN12C renal it was over 100 µM; in the assay on SK-MEL-2 melanoma, 64.8 µM; in the assay with K-562 leukemia it was 81.4 µM. The TGI in the assay on COLO 205 colon was over 100 µM; in the assay with CCRF-CEM leukemia, 49.9 µM; with OVCAR-8 ovarian, 17.9 µM; in the assay on HT29 colon, 21.9 µM; with SK-MEL-5 melanoma it was 15.8 µM; in the assay with MALME-3M melanoma it was 21.8 µM. In addition, the TGI in the assay on A549 NSCLC was determined as 23.8 µM; with UACC-257 melanoma, 15.5 µM.

Take `O=CNCNCCO`: the TGI in the assay with CAKI-1 renal, in the assay on U251 CNS, with SK-MEL-2 melanoma, with K-562 leukemia, with CCRF-CEM leukemia and with OVCAR-8 ovarian was over 100 µM throughout. Further, the TGI with HT29 colon, in the assay with SK-MEL-5 melanoma, in the assay with MALME-3M melanoma, in the assay on RPMI-8226 leukemia and in the assay on A549 NSCLC was over 100 µM each time.
